# Reference: patent publication US20080119491A1, “AMIDINOHETEROCYCLES AS MODULATORS OF INDOLEAMINE 2,3-DIOXYGENASE” (INCYTE CORPORATION, priority 2006, published 2008)
# Biological target: T1, Human indoleamine 2,3-dioxygenasae (IDO) (Homo sapiens, UniProt P14902)
# T1 construct: His tag (N); made in house; host or cells: E. coli
# Assay: Human indoleamine 2,3-dioxygenase (IDO) enzyme assay
# Type: biochemical
# Settings: 95 nM IDO, 2 mM D-Trp, pH 6.5, room temperature
# Method: Human indoleamine 2,3-dioxygenasae (IDO) with an N-terminal His tag was expressed in E. coli and purified to homogeneity. IDO catalyzes the oxidative cleavage of the pyrrole ring of the indole nucleus of tryptophan to yield N′-formylkynurenine. The assays were performed at room temperature as described in the literature using 95 nM IDO and 2 mM D-Trp in the presence of 20 mM ascorbate, 5 μM methylene blue and 0.2 mg/mL catalase in 50 mM potassium phosphate buffer (pH 6.5). The initial reaction rates were recorded by continuously following the absorbance increase at 321 nm due to the formation of N′-formlylkynurenine. See: Sono, M., Taniguchi, T., Watanabe, Y., and Hayaishi, O. (1980) J. Biol. Chem. 255, 1339-1345. […] The symbol “+” indicates […]. The symbol “+++” indicates IC50>[…]
# T1 sequence (P14902 whole entry): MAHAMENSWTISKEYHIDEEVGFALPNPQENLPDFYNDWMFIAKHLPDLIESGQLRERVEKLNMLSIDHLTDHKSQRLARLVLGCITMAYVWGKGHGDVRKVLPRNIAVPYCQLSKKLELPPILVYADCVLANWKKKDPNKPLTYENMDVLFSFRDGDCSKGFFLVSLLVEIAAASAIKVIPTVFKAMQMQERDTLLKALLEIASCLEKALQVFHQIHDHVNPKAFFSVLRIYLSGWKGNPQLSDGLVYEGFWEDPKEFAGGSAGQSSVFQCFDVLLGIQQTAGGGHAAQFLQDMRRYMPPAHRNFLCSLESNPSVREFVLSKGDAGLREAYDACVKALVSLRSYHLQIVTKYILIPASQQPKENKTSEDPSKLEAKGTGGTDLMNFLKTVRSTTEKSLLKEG
row,IC50 [µM],Structure (SMILES)
1,> 10,"COc1ccc(CNc2nccnc2C(=NO)Nc2cccc(C(F)(F)F)c2)cc1 [Example 1, NA-Hydroxy-3-[(4-methoxybenzyl)amino]-N-[3-(trifluoromethyl)phenyl]-pyrazine-2-carboximidamide]"
2,> 10,"Nc1nccnc1C(=NO)Nc1cccc(C(F)(F)F)c1 [Example 2, 3-Amino-N′-hydroxy-N-[3-(trifluoromethyl)phenyl]pyrazine-2-carboximidamide]"
3,> 10,"Nc1nccnc1C(=NO)Nc1ccc(F)c(C(F)(F)F)c1 [Example 4, 3-amino-N′-hydroxy-N-[3-(tri-fluoromethyl), 4-fluorophenyl]-pyrazine-2-carboximidamide]"
4,> 10,COc1ccc(CNc2nccnc2C(=NO)Nc2ccc(F)c(Cl)c2)cc1 [Example 5]
5,> 10,"Nc1nccnc1C(=NO)Nc1ccc(F)c(Cl)c1 [Example 6, 3-amino-N′-hydroxy-N-[3-chloro,4-fluorophenyl]pyrazine-2-carbox-imidamide]"
6,> 10,"ON=C(Nc1cccc(C(F)(F)F)c1)c1cnccn1 [Example 7, N′-hydroxy-N-[3-(trifluoromethyl)-phenyl]pyrazine-2-carbox-imidamide]"
7,> 10,"ON=C(Nc1cccc(C(F)(F)F)c1)c1cccnc1 [Example 8, N′-hydroxy-N-[3-(trifluoromethyl)-phenyl]pyridine-3-carbox-imidamide]"
8,> 10,"ON=C(Nc1ccc(F)c(Cl)c1)c1cccc(Oc2ccccc2)c1 [Example 10, N-(3-chloro-4-fluorophenyl)-N′-hydroxy-3-phenoxybenzene-carboximidamide]"
9,> 10,"Cc1ccc(Cl)cc1CNC(=NO)c1cccnn1 [Example 13, N-(5-chloro-2-methylbenzyl)-N′-hydroxypyridazine-3-carboximidamide]"
